What follows are compounds tested on BV2 microglial cells (assay: Cell viability assay). Conditions: not given.
Assay type: cell-based

Row | Structure (SMILES) | BV2 cell toxicity / viability (in words)
1 | O=C(N[C@H]1C[C@@H]1c1cccc(F)c1)c1cccc(F)c1 (racemic) [Compound 3a, 3-fluoro-N-(2-(3-fluorophenyl)cyclopropyl)benzamide] | excellent cell viability
2 | O=C(N[C@H]1C[C@@H]1c1cccc(F)c1)c1ccc([N+](=O)[O-])cc1 (racemic) [Compound 3d] | significant BV2 cell toxicity
3 | COc1cc(Br)ccc1NC(=O)[C@H]1C[C@@H]1c1cccc(F)c1 (racemic) [Compound 1d, N-(4-Bromo-2-methoxyphenyl)-2-(3-fluorophenyl)cyclopropane-1-carboxamide] | excellent BV2 microglial cell viability
4 | O=C(N[C@H]1C[C@@H]1c1cccc(F)c1)c1cccc([N+](=O)[O-])c1 (racemic) [Compound 3c] | significant BV2 cell toxicity

These compounds were tested on NO production in BV2 microglial cell cultures treated with lipopolysachharide (LPS) (assay: Inhibition of NO production in LPS-treated BV2 microglial cell cultures). Conditions: BV2 cells.
Assay type: cell-based

Row | Structure (SMILES) | anti-inflammatory potency compared to DFB (in words)
5 | O=C(Nc1nc2ccccc2s1)[C@H]1C[C@@H]1c1cccc(F)c1 (racemic) [Compound 1e, N-(Benzo[d]thiazol-2-yl)-2-(3-fluorophenyl)cyclopropane-1-carboxamide] | superior potency to DFB
6 | O=C(Nc1ccc(F)cc1)[C@H]1C[C@@H]1c1cccc(F)c1 (racemic) [Compound 1b] | decreased anti-inflammatory potency
7 | O=C(Nc1nc2ccccc2[nH]1)[C@H]1C[C@@H]1c1cccc(Cl)c1 (racemic) [Compound 2f] | improved potency
8 | O=C(Nc1nc2ccccc2[nH]1)[C@H]1C[C@@H]1c1cccc(F)c1 (racemic) [Compound 1f, N-(1H-benzo[d]imidazol-2-yl)-2-(3-fluorophenyl)cyclopropane-1-carboxamide] | superior potency to DFB
9 | COc1cc(Br)ccc1NC(=O)[C@H]1C[C@@H]1c1cccc(Cl)c1 (racemic) [Compound 2d, N-(4-Bromo-2-methoxyphenyl)-2-(3-chlorophenyl)cyclopropane-1-carboxamide] | decreased potency
10 | O=C(Nc1ccccc1F)[C@H]1C[C@@H]1c1cccc(F)c1 (racemic) [Compound 1a, N-(2-fluorophenyl)-2-(3-fluorophenyl) cyclopropane-1-carboxamide] | decreased anti-inflammatory potency
11 | O=C(Nc1ccccc1Cl)[C@H]1C[C@@H]1c1cccc(F)c1 (racemic) [Compound 1c] | decreased anti-inflammatory potency

— paper PMC4690453 (Bioorganic & medicinal chemistry letters, 2015)
